In paper PMC8490453, “PbrRALF2-elicited reactive oxygen species signaling is mediated by the PbrCrRLK1L13-PbrMPK18 module in pear pollen tubes” (Horticulture Research, 2021):
In the oligonucleotide strings, read from the 5' end, every base follows the letter of its sugar. An asterisk marks phosphorothioate; unmarked linkages are phosphodiester. Other units and linkages are bracketed, terminal groups are in braces. A string of capitals states the bases alone. d = 2'-deoxy (DNA)

Legend:
FER = conditions: Arabidopsis; cited from earlier work
Source text: (§1) PbrCrRLK1L13 interacts with its PbrRALF2 ligand via exJM at the plasma membrane (Fig. 2B), similar to the region where LORELEI and LLG1 physically interact with FER[42], thus implying a potentially conserved role for the exJM region of CrRLK1Ls. […] Such phosphorylation by peptides has similarly been observed for multiple receptor-like kin ...

BAK1 = conditions: Arabidopsis; cited from earlier work
Source text: as §1

PbrRALF11 = assay: Expression of PbrRALF11 after PbrRALF2-ODN treatment; type: cell-based, pear
Protocol: (§2) The MIQE guidelines were followed for quantitative RT-PCR (qRT–PCR) experiments. The Plant Total RNA Isolation Kit (FOREGENE, Chengdu, China) was used to extract total RNA, and DNase I was used to eliminate genomic DNA contaminants. A RevertAid First Strand cDNA Synthesis Kit was used to reverse transcription purified total RNA (3 μg) (Thermo Scientific, USA). Then, using SYBR Green Master Mix on a LightCycler® 480 II (Roche, Switzerland), quantitative PCR (qPCR) was performed on 20-μl samples according to the manufacturer’s instructions. The thermal cycle was performed at 95 °C for 5 min, followed by 45 cycles of 15 s at 95 °C and 15 s at 60 °C. The pear TUBULIN gene was used as an internal control, and relative expression levels were evaluated using the 2CT2 − △△CT method, as previously described. The primers for RT-PCR and qRT–PCR of PbrRALFs, PbrCrRLK1L13, PbrMPK18, and PbrTUB in pear are presented in Supplementary Tables S5 and S6, respectively.
(§3) Twenty-mer phosphorothioate oligonucleotides against PbrRALF2, PbrCrRLK1L13, PbrMPK18, and their sense controls (s-ODN) were synthesized with three 5′- and 3′-phosphorothioate-modified bases, and a scrambled mismatch sequence was used as a control. […] More than 35 pollen tubes were measured in each treatment, and the experiments were repeated at least three times. […]

PbrRALF7 = assay: Expression of PbrRALF7 after PbrRALF2-ODN treatment; type: cell-based, pear
Protocol: as §2, §3

[1] = target: GST-PbrCrRLK1L13-ECD (pear (Pyrus bretschneideri)); assay: SPR; Biacore T200, 25 °C; PbrCrRLK1L13 immobilised on a CM5 chip by amine coupling; running buffer 10 mM HEPES, 150 mM NaCl, 3 mM EDTA, pH 7.4; PbrRALF2 injected at 15, 30, 60 and 120 nM; steady-state 1:1 model; apparent
[2] = target: GST-PbrCrRLK1L13-ECD (pear (Pyrus bretschneideri)); assay: ITC; MicroCal ITC200, 25 °C; 200 μM PbrRALF2 in the syringe titrated into 20 μM PbrCrRLK1L13 extracellular domain; 50 mM phosphate pH 7.4, 150 mM NaCl; one set of sites model; apparent
[3] = target: GST-PbrCrRLK1L13-ECD (pear (Pyrus bretschneideri))

Q: With “RALF1: Arabidopsis RALF1, ligand of FER (ATTKYISYQSLKRNSVPCSRRGASYYNCQNGAQANPYSRGCSKIARCRS; UniProt Q9SRY3 72-120, looked up)” as the substance, how does the FER phosphorylation (FER) read?
A: triggers FER

Q: What about the BAK1 phosphorylation (BAK1) of the same substance?
A: BAK1[41] phosphorylation

Q: What does the source list for “PbrRALF2-ODN-1: antisense ODN GTGATGGCGCTGCAGCCGCGG (antisense dG*dT*dG*dAdTdGdGdCdGdCdTdGdCdAdGdCdCdG*dC*dG*dG)”?
A: expression level of PbrRALF11 (PbrRALF11): not affected; expression level of PbrRALF7 (PbrRALF7): not affected

Q: With “recombinant PbrRALF2 (His-PbrRALF fusion protein from pCold-TF) (ligand)” as the substance, how does the Kd [1] read?
A: 73 nM

Q: What about the Kd [2] of the same substance?
A: 512 nM

Q: What about the IC50 of inhibition of pear pollen tube growth by E. coli-expressed PbrRALF2 (0.025-1 μM) [3] of the same substance?
A: 92 nM

Q: Which results are given for “PbrRALF2-ODN-2: antisense ODN GCGCACCGTAGCTGATGT (antisense dG*dC*dG*dCdAdCdCdGdTdAdGdCdTdGdA*dT*dG*dT)”?
A: expression level of PbrRALF11 (PbrRALF11): not affected; expression level of PbrRALF7 (PbrRALF7): not affected
